Results on 82 compounds are retold here after PubChem BioAssay AID624265 (Broad Institute, 2012).

A short description of this assay: cytotoxicity in NIH3T3 fibroblasts, dose response, cytotoxicity control for HSP40 inhibitor project, cell-based, CellTiter-Glo luminescence, cherry-pick, set 2 (AID 624265).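 Further: cells exposed to compound for 48 hours before the ATP read; 0% = median neutral control signal and -100% = no luminescence left.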 The following applies: NIH3T3 viability, CellTiter-Glo ATP luminescence; at 50 µM (top of the series).

Where “and” joins values, the source holds several entries; their conditions need not be identical. Identical values can stand only once. Calls of active or inactive are those of the source.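 How the source made its calls: active means at a dose no more than twice the top valid tested dose, the fitted curve drops below -35% activity change; inactive means the rest, rising-direction activity included.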

As to `COc1ccc(/C=N/Nc2cc(C)nc(-n3nc(C)cc3C)n2)cc1`, the activity change, negative = toxicity was -9.51% (inactive).
As to `OCCN(CCO)c1cc2c3ccccc3ccc2c2ccccc12`, the activity change, negative = toxicity was -14.3% (inactive).
For the compound `CCCCCCCc1ccc(-c2ccc(O)cc2)nc1`, the activity change, negative = toxicity is 25.5% (inactive).
As for `CN1CCN(C(=O)c2cc(COc3ccc(F)cc3Cl)on2)CC1c1ccccc1` (configuration not stated), the activity change, negative = toxicity is 14.2% (inactive).
Take `CC1(C(=O)OCC(=O)Nc2ccc3ccccc3c2)CC1(Cl)Cl` (configuration not stated): the activity change, negative = toxicity is 0.196% (inactive).
With `O=C(Nc1cc(Oc2ccc(Cl)cc2)cc([N+](=O)[O-])c1)c1ccco1`, the activity change, negative = toxicity was -2.9% (inactive).
With `CCCn1c2ccccc2c2cc(C(=O)O)ccc21`, the activity change, negative = toxicity is -3.19% (inactive).
The figure for `C=C(C)COc1ccc(-c2[nH]ncc2-c2ccccc2)c(O)c1` is -16.4% (inactive).
Turning to `COc1cnc(-c2ccccn2)nc1Sc1ccccc1`, the activity change, negative = toxicity was 9.22% (inactive).
With `C=CCc1ccc(O)c(-c2ccc(O)c(CC=C)c2)c1`, the activity change, negative = toxicity is 9.45% (inactive).
Consider `CC1(C)C=Cc2c(ccc3c2OC[C@@H](c2ccc(O)cc2O)C3)O1`, for which the activity change, negative = toxicity was 16.2% (inactive).
In the case of `COc1cccc(C(C)=C2SC(=S)NC2=O)c1`, the activity change, negative = toxicity was 1.04% (inactive).
Turning to `CCCOc1ccc2ccccc2c1/C=C1\SC(=O)NC1=O`, the activity change, negative = toxicity was 6.17% (inactive).
On to `O=C(NOC(=O)c1ccccc1)c1ccccc1`, for which the activity change, negative = toxicity was -12.1% (inactive).
The figure for `O=C(CC1CC2CCC1C2)Nc1nc(-c2ccccn2)cs1` (configuration not stated) is 10.2% (inactive); for `Cn1ccc(=Nc2ccc(NC(=O)c3ccc(N=c4ccn(C)c5ccc([N+](=O)[O-])cc45)cc3)cc2)cc1` it is 1.51% (inactive); for `Cc1ccc(-n2nnnc2SCC(=O)N2CCc3ccccc3C2)c(C)c1` it is 3.85% (inactive).
Take `O=C(CSc1ccc(-c2ccccn2)nn1)NCc1ccc(F)cc1`: the activity change, negative = toxicity is -2.59% (inactive).
The figure for `CCC(NC(=S)NCc1ccc(F)cc1)c1ccc(C(C)C)cc1` (configuration not stated) is 41.2% (inactive); for `O=[N+]([O-])c1cc(C(F)(F)F)ccc1NCCc1c[nH]c2ccc(O)cc12` it is -9.08% (inactive); for `Cc1cc(C(=O)COC(=O)Cc2n[nH]c(=O)c3ccccc23)c(C)n1-c1cccc(C(F)(F)F)c1` it is 24.5% (inactive).
Take `Clc1ccc(COC(Cn2ccnc2)c2ccc(Cl)cc2Cl)c(Cl)c1` (configuration not stated): the activity change, negative = toxicity is 5.58% (inactive) and 0.687% (inactive).
With `CCc1ccc(CN(C)C(=O)c2cc(COc3cccc(C(F)(F)F)c3)on2)nc1`, the activity change, negative = toxicity is 5.53% (inactive).
As to `CCCn1nc(C(=O)N2CCN(S(=O)(=O)c3ccc(C)c(C)c3)CC2)c2ccccc2c1=O`, the activity change, negative = toxicity was 2.59% (inactive).
Turning to `O=C(O)c1c(NC(=O)N2CCCC2)sc2c1CCCC2`, the activity change, negative = toxicity was 19.6% (inactive).
For the compound `Nc1nc2sc3c(c2c(=O)s1)CCCC3`, the activity change, negative = toxicity is 13.7% (inactive).
Regarding `O=c1c2ccccc2c(-c2ccc(O)cc2)nn1-c1cccc(C(F)(F)F)c1`, the activity change, negative = toxicity is -18.6% (inactive).
With `Cc1cc(NS(=O)(=O)c2ccc(C3CCCCC3)cc2)no1`, the activity change, negative = toxicity was -14.2% (inactive).
Turning to `Cc1ccc(O)c(C2=NNC(c3ccc(Cl)cc3)C2)c1` (configuration not stated), the activity change, negative = toxicity was 0.122% (inactive).
Consider `COc1ccc(N=N/C(=C\O)C(=O)c2cccs2)cc1`, for which the activity change, negative = toxicity was 14.1% (inactive).
As to `CNc1cc(CSC)nc(SCc2ccc(Cl)cc2Cl)n1`, the activity change, negative = toxicity is 18.6% (inactive).
The figure for `CC1(C)C2CCC1(C)C(OC(=O)c1ccc(O)cc1)C2` (configuration not stated) is -0.777% (inactive); for `Cc1c(C2(O)CCCCC2)[nH]c2ccc(C(F)(F)F)cc12` it is -6.56% (inactive); for `O=c1c(O)c(-c2ccccc2)oc2ccccc12` it is -0.823% (inactive).
The value for `CC(NC(=S)NC1CCC(C(C)(C)C)CC1)c1ccccc1` (configuration not stated) was 3.27% (inactive); that for `O=C(c1ccc(Cl)cc1)N1CCN(c2ccc(F)cc2)CC1` was 5.81% (inactive).
Take `O=C(Nc1nnc(-c2ccccc2)o1)c1ccc(Cl)cc1`: the activity change, negative = toxicity is 29.9% (inactive).
Regarding `Cc1ccc(NC(=O)CN(C)C(=O)c2cccnc2Nc2cccc(C(F)(F)F)c2)cc1`, the activity change, negative = toxicity is -0.151% (inactive).
The figure for `Cc1nc(SCc2ccc(OCCC(C)C)cc2)n[nH]1` is 3.46% (inactive); for `CCOC(=O)N1C(=O)C2(CCCCC2)N(c2ccccc2Cl)C1=S` it is -8.13% (inactive).
The figure for `O=C1N(c2ccc(Cl)cc2)C(c2cccnc2)N2CCCN12` (configuration not stated) is 17.3% (inactive); for `c1ccc(-c2ccc(SCc3cccnc3)nn2)nc1` it is -5.74% (inactive).
On to `S=C(Nc1ccc(Oc2ccccc2)cc1)NC1CCCCCC1`, for which the activity change, negative = toxicity was 12.1% (inactive).
Consider `Cc1nn(CCC#N)c(N)c1C1(O)C(=O)Nc2c(Cl)cc(Cl)cc21` (configuration not stated), for which the activity change, negative = toxicity was -6.69% (inactive).
As to `CCc1ccc(S(=O)(=O)N(C(=O)c2ccncc2)c2ccc(OC(=O)c3ccncc3)cc2)cc1`, the activity change, negative = toxicity is 12.1% (inactive).
For the compound `CCOC(=O)c1ccc(NC(=S)N(Cc2cccnc2)Cc2ccco2)cc1`, the activity change, negative = toxicity was 2.56% (inactive).
`CC(C)=CCc1c(O)ccc(C(=O)Cc2ccccc2)c1O`: the activity change, negative = toxicity was -2.45% (inactive).
For `CC1CCN(c2ccc3c(c2)S(=O)(=O)c2ccccc2C3=O)CC1`, the activity change, negative = toxicity was -1.31% (inactive).
On to `Oc1c(I)cc(Cl)c2cccnc12`, for which the activity change, negative = toxicity is -13.1% (inactive).
As to `Clc1ccc(C(Cn2ccnc2)OCc2c(Cl)cccc2Cl)c(Cl)c1` (configuration not stated), the activity change, negative = toxicity is 0.224% (inactive).
In the case of `Oc1c(CN2CCCC2)cc(COCc2ccccc2)c2cccnc12`, the activity change, negative = toxicity is -2.61% (inactive).
As for `Cc1ccc2c(C)c3ccc4ccccc4c3c[n+]2c1`, the activity change, negative = toxicity was 11.9% (inactive).
With `O=C(/C(=N/N=C/c1ccc(O)c(O)c1O)c1ccccc1)c1ccccc1`, the activity change, negative = toxicity is -5.73% (inactive).
For `C=CCNC(=S)N1CCC(Cc2ccccc2)CC1`, the activity change, negative = toxicity was 7.32% (inactive).
For the compound `O=Cc1cc(N=Nc2ccccc2Cl)ccc1O`, the activity change, negative = toxicity was -3.57% (inactive).
In the case of `CCC(C)Sc1cccc(-c2nc3ccccn3c2NCc2ccccc2)c1` (configuration not stated), the activity change, negative = toxicity is -15.9% (inactive).
Consider `c1ccc(C(=NNc2nc3ccccc3s2)c2ccccn2)cc1`, for which the activity change, negative = toxicity was 11.9% (inactive).
The value for `CC1=CC(C)(C)N(S(=O)(=O)c2ccc(C)cc2)c2ccc(C)cc21` was 9.86% (inactive); that for `O=S(=O)(Nc1ccccc1)c1ccc(Oc2ncc(C(F)(F)F)cc2Cl)cc1` was 13% (inactive).
For `COc1ccc(N(C(=O)c2ccncc2)S(=O)(=O)c2ccccc2)cc1`, the activity change, negative = toxicity is -6.26% (inactive).
Take `COc1cc2c(c(OC)c1OC)-c1ccc(O)c(=O)cc1[C@@H](NC(C)=O)CC2`: the activity change, negative = toxicity is 4.18% (inactive).
In the case of `COc1ccc(O)c(C(=O)CC(=O)c2ccccc2C)c1`, the activity change, negative = toxicity is 0.039% (inactive).
With `CCCOc1ccc(S(=O)(=O)n2cc(F)c(=O)[nH]c2=O)cc1`, the activity change, negative = toxicity is 10.7% (inactive).
`S=C(NCc1ccco1)Nc1ccc(Oc2ccc(Cl)cc2)cc1`: the activity change, negative = toxicity was 10.2% (inactive).
Consider `CCCSC(=S)c1c(C)[nH]n(-c2ccccc2)c1=O`, for which the activity change, negative = toxicity is -14.1% (inactive).
With `Cc1ccccc1C(=O)NNC(=S)NC(=O)c1ccc(Cl)cc1Cl`, the activity change, negative = toxicity is -5.68% (inactive).
As to `Cc1ccc(Sc2ccc(NC(=O)CCl)cc2)cc1C`, the activity change, negative = toxicity is 2.95% (inactive).
For `CC(=O)Nc1cccc(NC(=O)CSc2ccc(-c3ccccn3)nn2)c1`, the activity change, negative = toxicity is -9.54% (inactive).
As for `CC1(C)CC(=O)C(N=Nc2ccc3ncsc3c2)=C(O)C1`, the activity change, negative = toxicity is 3.01% (inactive).
The value for `COC(=O)c1cccc2c1-c1ccccc1/C2=N/O` was 28.2% (inactive); that for `O=C(c1ccccc1)N1C(=O)C(c2ccccc2)Oc2ccccc21` (configuration not stated) was 5.11% (inactive); that for `CCc1ccc(OCc2n[nH]c(=S)n2Cc2ccccc2)cc1` was 3.81% (inactive).
The value for `O=C(c1ccc(-c2ccccc2)cc1)C1CCCN(C(=O)c2cncs2)C1` (configuration not stated) was -8.68% (inactive).
Regarding `CC(C)(C)C(O)C(Cc1ccccc1Cl)n1cncn1` (configuration not stated), the activity change, negative = toxicity is -1.54% (inactive).
`Oc1ccccc1-c1cc(-c2ccc3c(c2)OCCO3)n[nH]1`: the activity change, negative = toxicity was -2.25% (inactive).
The value for `Cc1cccc(N2CCN(C(=O)C3COc4ccccc4O3)CC2)c1C` (configuration not stated) was -5.05% (inactive); that for `O=C(O)c1ccccc1NC(c1ccccc1)c1ccc2cccnc2c1O` (configuration not stated) was -15.4% (inactive); that for `CN(c1ccccc1)c1nc(N2CCCC2)nc(-n2ccnc2)n1` was 11.2% (inactive).
Turning to `COc1cnc(-c2ccccn2)nc1Oc1ccc(C(C)(C)C)cc1`, the activity change, negative = toxicity is 23.5% (inactive).
As for `Cc1ccc(C(=O)C(SC(C)(C)C)n2cncn2)cc1` (configuration not stated), the activity change, negative = toxicity is 10.4% (inactive).
With `CCCCC(=O)NC(c1ccco1)c1cc(Cl)c2cccnc2c1O` (configuration not stated), the activity change, negative = toxicity is -22.9% (inactive).
The figure for `Cc1ccc2oc(-c3ccccc3)c(C(=O)O)c(=O)c2c1` is -13.9% (inactive).
